Results reported in US5489613A, “Carbacyclin derivatives, process for their preparation and compositions containing them” (priority 1983, dated 1996).
≈ marks a conversion by molar mass, not a printed value.

Key:
Assay type in all cases: cell-based
[1] = system: platelet aggregation (platelet-rich plasma); assay: Inhibition of platelet aggregation (ADP-induced), Born's turbidimetric method, human blood; details: 2 min, read-out: Concentration (ng/ml) for 50% inhibition, human blood
Method: (§1) Platelet aggregation was determined by the following means: 0.05 ml of a test liquid (containing, in various concentrations, the compound whose inhibitory effect was to be tested) was added to 1 ml of this platelet-rich plasma; two minutes after the addition, 0.2 ml of a liquid containing adenosine diphosphate at a concentration of 5 μM was added; the increase in light transmission at 600 nm was determined by means of a platelet aggregometer manufactured by Bryston Co. Limited.

[2] = system: platelet aggregation (platelet-rich plasma); assay: Inhibition of platelet aggregation (ADP-induced), Born's turbidimetric method, rabbit blood; details: Oryctolagus cuniculus, 2 min, read-out: Concentration (ng/ml) for 50% inhibition, rabbit blood
Method: as §1

[3] = system: blood platelets; assay: Inhibition of aggregation of blood platelets (thrombocyte agglutination), stated in words
[4] = human platelet-rich plasma, adenosine diphosphate 5 μM, 2 min after addition of test liquid, 600 nm
[5] = rabbit platelet-rich plasma, adenosine diphosphate 5 μM, 2 min after addition of test liquid, 600 nm

SMILES	IC50 [1, 4]	IC50 [2, 5]	IC50 ([1]; Homo sapiens, Platelet)	IC50 ([2]; Platelet)	ability to inhibit aggregation of blood platelets [3]
C=CCCCC(C)[C@H](O)/C=C/[C@@H]1[C@H]2CC(CCCCC(=O)O)=C[C@H]2C[C@H]1O (stereo partly drawn) [Compound 60, 3-(4-Carboxybutyl)-6β-(3α-hydroxy-4-methylnona-1,8-dienyl)-7α-hydroxy-cis-bicyclo[3,3,0]oct-2-ene]	1.8 ng/mL (≈ 4.78 nM)	1.1 ng/mL (≈ 2.92 nM)			
CC#CCC(C)[C@H](O)/C=C/[C@@H]1[C@H]2CC(CCCCC(=O)O)=C[C@H]2C[C@H]1O (stereo partly drawn) [Compound 85, 3-(4-Carboxybutyl)-6β-(3α-hydroxy-4-methyloct-1-en-6-ynyl)-7α-hydroxy-cis-bicyclo[3,3,0]oct-2-ene]	0.4 ng/mL (≈ 1.11 nM)	3.6 ng/mL (≈ 9.99 nM)			
O=C(O)CCCCC1=C[C@H]2C[C@@H](O)[C@H](/C=C/[C@@H](O)C3CCCC3)[C@H]2C1 [Compound 90, 3-(4-Carboxybutyl)-6β-(3α-hydroxy-3-cyclopentylprop-1-enyl)-7α-hydroxy-cis-bicyclo[3,3,0]oct-2-ene]	0.5 ng/mL (≈ 1.43 nM)	3.7 ng/mL (≈ 10.6 nM)			
O=C(O)CCCCC1=C[C@H]2C[C@@H](O)[C@H](/C=C/[C@@H](O)C3CCCCC3)[C@H]2C1 [Compound 98, 3-(4-Carboxybutyl)-6β-(3α-hydroxy-3-cyclohexylprop-1-enyl)-7α-hydroxy-cis-bicyclo[3,3,0]oct-2-ene]	0.9 ng/mL (≈ 2.48 nM)	3.3 ng/mL (≈ 9.1 nM)			
O=C(O)CCCCC1=C[C@H]2C[C@@H](O)[C@H](/C=C/[C@@H](O)CC3CCCC3)[C@H]2C1 [Compound 100, 3-(4-Carboxybutyl)-6β-(3α-hydroxy-4-cyclopentylbut-1-enyl)-7α-hydroxy-cis-bicyclo[3,3,0]oct-2-ene]	1.1 ng/mL (≈ 3.03 nM)				
CCCCC[C@H](O)/C=C/[C@H]1[C@H](O)CC(=O)[C@@H]1CCCCCCC(=O)O [Compound A, PGE1, reference compound]	9.3 ng/mL (≈ 26.2 nM)	36 ng/mL (≈ 102 nM)			
CCCCC[C@H](O)/C=C/[C@@H]1[C@H]2C/C(=C/CCCC(=O)O)C[C@H]2C[C@H]1O [Compound B, carbacyclin]			13.3 ng/mL (≈ 37.9 nM)	36 ng/mL (≈ 103 nM)	
CCCCC[C@H](O)/C=C/[C@@H]1[C@H]2CC(CCCCC(=O)O)=C[C@H]2C[C@H]1O [Compound C, reference compound]	3.6 ng/mL (≈ 10.3 nM)	5.9 ng/mL (≈ 16.8 nM)			has the ability to inhibit aggregation blood platelets
